We go through one substance from US11406660B2, “Treatment of bone marrow edema (OEDEMA) with polysulfated polysaccharides” (PARADIGM HEALTH SCIENCES PTY LTD, priority 2011, dated 2022).

Test [1] deals with sub-chondral bone contusion (BME). The experiment in a line: Case report Example 3: subject one, knee pain after sub-chondral bone contusion (BME), daily intramuscular PPS. Type of test: in vivo, human. Conditions: for knee pain: 100 mg intramuscular daily. On the procedure: For example, in one instance, the pain suffered by a patient was so debilitating that the patient received a total of 7 intramuscular injections (7×1 ml ampoules PPS [7×100 mg]) over a period of 7 day until the pain resolved. This equated to just over 1.0 mg/kg PPS daily.
A healthy person one with genu varum of approximately 5 degrees slipped on a step at an airport terminal while rushing to catch an international flight such that their left foot made an unexpected high impact with the ground. After arriving at their destination late that evening, the person retired for the night but was woken in the early hours of the morning with intense throbbing pain originating from the medial compartment of their left knee joint.

Test [2] concerns subchondral BME in the femoral subchondral bone. As to the kind of experiment: Case report Example 1: subject, knee injury with subchondral BME, course of PPS injections. Type of test: in vivo, human. Conditions: for BME on T1 weighted MRI: subject, one week after completing 10 x 100 mg/ml IM injections, FIG. 1B vs FIG. 1A. On the procedure:
FIG. 1A is an MRI (T1 weighted scans) of subject […] showing the presence of bone marrow edema in the subchondral bone of the in left femoral condyle. Edema is evidenced by the reduced intensity of the signals in the semi-circular region beneath the articular cartilage. The MRI was taken 5 days following initial joint injury; and
FIG. 1B is an MRI (T1 weighted scans) of subject […] taken one week after completing a course of 10×100 mg/ml IM injection of pentosan polysulfate. […] Magnification of MRI image shown is slightly higher than for FIG. 1A.
A subject ([…]) in good general health while jogging on the footpath stumbled and fell laterally striking the pavement with their right knee. Next day the knee was swollen and extremely painful and when examined by a medical practitioner was diagnosed as avulsion of the collateral ligament attachment to tibial bone. […] Five days after sustaining the injury surgical repair was undertaken to re-attach the free ligament bone insertion to the tibia. However the knee pain persisted thereafter and was not relieved by use of analgesics or NSAIDs. Five weeks after the surgery a course of PPS, 100 mg/ml injections administered intramuscularly twice weekly for 5 weeks was initiated (total of 10 injections). After receiving the 6th injection, the pain and joint swelling had disappeared and one week after completion of the PPS course of injections the joint was again reviewed by T1 weighted MM.

A further test concerns OA. To be noted: cited from earlier work.
For test [3] the following is noted: cited from earlier work.

For the substance pentosan polysulfate [PPS], the pain entry in test [1] (a patient, 7 intramuscular injections (7 x 100 mg) over 7 days, just over 1.0 mg/kg daily) is on record as “resolved”. The knee pain entry is listed as “completely resolved” in test [1] (subject one, after the 7th injection) and “substantially subsided” in test [1] (subject one, following the 5th injection). In addition, the “recurrence of debilitating joint pain” value in test [1] (subject one, subsequent months following the PPS course of therapy) was “did not re-occur”. The “pain and joint swelling” value in test [2] (subject three, 100 mg/ml intramuscularly twice weekly for 5 weeks, after the 6th injection) is reported as “disappeared”. The “BME on T1 weighted MRI” value in test [2] is given as “completely resolved”; in test [2] (listed as pentosan polysulfate), “absence of bone marrow edema”. The “symptoms in patients with OA” value in the test with OA was “symptomatic relief”. The “anticoagulant activity compared with heparin” value in test [3] was “weaker anticoagulant than heparin”.
